Literature values, collected in patent US20110200632A1, “ADJUVANTING MATERIAL” (Lipotek Pty Ltd., priority 2005, published 2011).

Test system: splenocytes and macrophages
Details: versus Pam3Cys

CCCCCCCCCCCCCCCC(=O)OCC(CSC[C@H](N)C(=O)O)OC(=O)CCCCCCCCCCCCCCC (stereo partly drawn) [Pam2Cys, S-[2,3-bis(palmitoyloxy)propyl]cysteine]
stimulator of splenocytes and macrophages, compared with Pam3Cys: more potent
